From patent US20210247400A1, “ACTIVATION OF PATTERN-TRIGGERED IMMUNITY IN PLANTS BY LIPOOLIGOSACCHARID-SPECIFIC REDUCED ELICITATION (LORE) AND VARIANTS THEREOF” (Technische Universität München, priority 2018, published 2021)
Values belong to the compound of their own block, whether it stands above or below them.

Experiments:
LORE [1] = target: T1, LORE (Arabidopsis thaliana, UniProt O64782); test: PTI in Arabidopsis (biological assays, LORE dependence); type: cell-based; settings: for elicitor activity / PTI responses / early PTI signalling reactions: 5 μM, [Ca^2+]cyt and ROS; for elicitor activity: FIG. 3B-E, FIG. 6B; for PTI responses ([Ca^2+]cyt signalling, ROS production, defence gene induction, MAPK activation; ROS in LORE-GFP-expressing N. benthamiana): FAs 1-5 μM, compared to mc-3-OH-FAs, FIG. 2A-G; for PTI responses: FIG. 3A,B; for early PTI signalling reactions: short-term exposure, FIG. 4D-E
T1 construct: aequorin-expressing wild-type (Col-0^AEQ) or lore-1 mutant seedlings; endogenous in cells; host or cells: Arabidopsis thaliana Col-0 / Col-0^AEQ seedlings and leaf discs
T1 sequence (O64782 22-805): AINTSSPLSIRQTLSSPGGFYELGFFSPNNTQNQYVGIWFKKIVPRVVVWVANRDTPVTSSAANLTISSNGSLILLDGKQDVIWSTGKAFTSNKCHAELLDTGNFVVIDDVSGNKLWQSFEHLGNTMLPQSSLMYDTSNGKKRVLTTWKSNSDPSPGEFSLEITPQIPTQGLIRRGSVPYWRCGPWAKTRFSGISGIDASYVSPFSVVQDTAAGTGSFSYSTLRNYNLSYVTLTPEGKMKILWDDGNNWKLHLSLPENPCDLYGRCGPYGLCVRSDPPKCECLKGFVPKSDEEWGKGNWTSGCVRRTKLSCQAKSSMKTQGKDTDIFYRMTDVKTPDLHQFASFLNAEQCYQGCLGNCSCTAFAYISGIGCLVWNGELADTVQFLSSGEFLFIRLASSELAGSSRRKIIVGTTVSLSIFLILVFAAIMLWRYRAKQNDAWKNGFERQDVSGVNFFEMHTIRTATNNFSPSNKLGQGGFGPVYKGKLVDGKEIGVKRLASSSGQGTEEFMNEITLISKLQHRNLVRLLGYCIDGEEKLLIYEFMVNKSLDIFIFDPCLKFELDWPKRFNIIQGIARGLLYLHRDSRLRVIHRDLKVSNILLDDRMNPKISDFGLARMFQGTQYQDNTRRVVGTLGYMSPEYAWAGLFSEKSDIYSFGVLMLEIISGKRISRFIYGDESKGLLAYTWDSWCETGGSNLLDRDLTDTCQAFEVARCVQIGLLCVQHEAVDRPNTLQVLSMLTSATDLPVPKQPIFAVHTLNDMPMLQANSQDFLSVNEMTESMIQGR

AtFRK1 and AtNHL10 = test: Gene expression analysis (quantitative PCR of defence genes); settings: 1 μM, four hours after elicitation, seedlings, FIG. 1G
AtMPK3 and AtMPK6 = test: Immunoblot analysis of MAPK activation; type: cell-based, Arabidopsis thaliana; settings: 5 μM, seedlings, FIG. 1H
Experimental: MAPK activation was elicited in 14-days-old liquid-grown seedlings as described (Ranf et al., 2015) by adding MAMPs to the final concentrations indicated. […] Proteins were extracted in kinase extraction buffer containing 50 mM Tris/HCl pH 7.5, 100 mM NaCl, 20 mM EGTA, 30 mM beta-glycerophosphate, 30 mM 4-p-Nitrophenylphosphate, 4 mM NaF, 4 mM Na3VO4, 4 mM Na2MoO4, 10 mM DTT, 0.2% Tween 20, and 1× plant protease inhibitor cocktail P9599 (Sigma-Aldrich). […] total protein (according to Bradford Protein Assay, Bio-Rad) was separated by standard SDS polyacrylamide gel-electrophoresis (Mini-PROTEAN Tetra Cell, Bio-Rad) and blotted onto nitrocellulose membrane (Amersham™ Protran™ 0.2 μm NC, GE Healthcare) using a Trans-Blot® SD Semi-Dry Transfer Cell (Bio-Rad). Membranes were blocked in Protein-Free TBS Blocking Buffer (Pierce™) and immunostained with anti-phospho-MPK antibody (anti-phospho-p44/42-ERK, 1:1000, Cell Signaling Technology #9101) and anti-rabbit-IgG-peroxidase conjugate (A9169, 1:50000, Sigma-Aldrich) using SuperSignal™ West Dura Extended Duration Substrate (Thermo Scientific). ECL chemiluminescence was detected using a Fusion SL camera (Vilber Lourmat). Membranes were stained with Amido black to assess equal protein loading.

LORE [2] = target: T1, LORE; test: Aequorin luminescence measurements of [Ca^2+]cyt elevations in Arabidopsis seedlings; type: cell-based; settings: for elicitor activity ([Ca^2+]cyt response): 5 μM, Col-0^AEQ or lore-1 seedlings, FIG. 2H-J
Experimental: Aequorin luminescence measurements were performed essentially as described (Ranf et al., 2012). In short, 8- to 10-days-old liquid-grown apoaequorin-expressing seedlings were placed individually in 96-well plates in MP-dH2O containing 5-10 μM coelenterazine-h (p.j.k. GmbH) in the dark overnight. Luminescence was recorded by scanning 2 rows in 10 sec intervals using a Luminoskan Ascent 2.1 (Thermo Scientific). Remaining aequorin was discharged by addition of 150 μl 2 M CaCl2) with 20% EtOH per well. [Ca^2+]cyt concentrations were calculated as L/Lmax (luminescence counts per sec/total luminescence counts remaining).

Pst DC3000 = test: Induced resistance assay in Arabidopsis plants; type: in vivo, Pseudomonas syringae pv. tomato; settings: FIG. 1J
Experimental: After two or three days Pst DC3000 was syringe infiltrated into leaves 4 and 5 of the pretreated plants at 1×10^5 CFU/ml. Bacterial growth in infected leaves was determined 4 days later as described (Vlot et al., 2008). Statistical analysis (one-way analysis of variance, ANOVA, with Tukey's multiple comparison post-test) was applied separately for wild type and mutant plants using GraphPad Prism 7.0.

LORE [3] = target: T1, LORE; test: ROS detection in Arabidopsis leaves (leaf discs); type: cell-based; settings: 5 μM, leaf discs Col-0 or lore-5, FIG. 2D
Experimental: ROS production was monitored as described (Ranf et al., 2015) in 3 mm leaf discs from 6-8 weeks-old soil-grown plants in 100 μl 5 μM L-012 (WAKO chemicals) and 2 μg/ml horseradish peroxidase (Type II, Roche) in MP-dH2O. For experiments including 4-OH-10:0 (19) and 5-OH-10:0 (20), 10 mM Tris pH 8 was added to the L-012/HRP mix. Luminescence was recorded as relative light units (RLU) in 1 min intervals using a Luminoskan Ascent 2.1 (Thermo Scientific) or a Tecan F200. After 10 min background reading, elicitors were added to the final concentrations indicated and luminescence readings continued over 45-60 min. Data are depicted after normalization to average ROS levels 5 min before elicitor application and subtraction of water or MeOH controls that were included for each genotype on the same plate.

[4] = sample conc. used for biological assays 1 μM-5 μM (mostly)
[5] = sample conc. used for biological assays 5 μM
[6] = wild-type Arabidopsis plants pre-treated with 10 μM, titre at 4 dpi

SMILES: CCCCCCCC(O)CC(=O)O (racemic) [Compound 1, 3-hydroxydecanoic acid]
- elicitor activity (LORE [1]): strongest elicitor activity
- LORE-dependent (LORE [1]; [4]): Yes
- PTI in Arabidopsis (LORE [1]; [4]): Yes
- LORE-dependent (LORE [1]; [5]): Yes
- PTI in Arabidopsis (LORE [1]; [5]): Yes
- [Ca^2+]cyt or ROS signals (LORE [1]; subsequent application after mc-3-OH-FA-depleted LPS, FIG. 4A-C, FIG. 5): typical [Ca^2+]cyt or ROS signals were induced
- transcript accumulation of PTI response genes AtFRK1 and AtNHL10 (AtFRK1 and AtNHL10): induced transcript accumulation
- phosphorylation of AtMPK3 and AtMPK6 (AtMPK3 and AtMPK6): phosphorylation of mitogen-activated protein kinases (MAPK), AtMPK3 and AtMPK6
- [Ca^2+]cyt elevations (LORE [2]; Col-0^AEQ seedlings, different concentrations (nanomolar to micromolar range), FIG. 1C): sufficient to elicit [Ca^2+]cyt elevations
- systemic resistance to infection with Pst DC3000 (Pst DC3000; lore-1 mutant plants pre-treated with 10 μM): systemic resistance was not activated
- systemic resistance to infection with Pst DC3000 (Pst DC3000; [6]): more resistant to subsequent infection with virulent Pst DC3000

SMILES: CCCCCCC(O)CCC(=O)O (stereo not drawn) [Compound 19, 4-hydroxydecanoic acid]
- LORE-dependent ROS production (LORE [3]): did not elicit LORE-dependent ROS production

SMILES: CCCCCC(O)CCCC(=O)O (stereo not drawn) [Compound 20, 5-hydroxydecanoic acid]
- LORE-dependent ROS production (LORE [3]): did not elicit LORE-dependent ROS production

SMILES: CCCCCCCC(=O)CC(=O)O [Compound 23, 3-oxodecanoic acid]
- elicitor activity ([Ca^2+]cyt response) (LORE [2]): induced a moderate LORE-dependent [Ca^2+]cyt response

SMILES: CCCCCCCC(CC(=O)O)OC(C)=O (stereo not drawn) [Compound 25, 3-acetoxydecanoic acid]
- elicitor activity ([Ca^2+]cyt response) (LORE [2]): abolished elicitor activity

SMILES: CCCCCCCC(O)CC (stereo not drawn) [Compound 27, decan-3-ol]
- PTI responses (LORE [1]): neither 3-decanol nor 1,3-decandiol elicited PTI responses

SMILES: CCCCCCCC(O)CCO (stereo not drawn) [Compound 28, decane-1,3-diol]
- PTI responses (LORE [1]): neither 3-decanol nor 1,3-decandiol elicited PTI responses

SMILES: CCCCCCC[C@@H](O)CC(=O)O [Compound 44, (R)-3-hydroxydecanoic acid]
- immune signalling ([Ca^2+]cyt elevations) (LORE [2]; different concentrations, Arabidopsis seedlings, FIG. 6A): induced stronger immune signalling than (S)-3-OH—C10:0 (45)

Further lines, with some results ahead:

- PTI signalling (LORE [1]; FIG. 1D-H): did not induce PTI signalling
SMILES: CCCCCCCCCCCC(O)CC(=O)O (racemic) [Compound 7, 3-hydroxytetradecanoic acid]
- systemic resistance to infection with Pst DC3000 (Pst DC3000; [6]): did not establish systemic resistance to bacterial infection

- PTI in Arabidopsis (LORE [1]; [5]): No
SMILES: CCCCCCCCCC(=O)NC1CCOC1=O (racemic) [Compound 43, N-Decanoyl-DL- homoserine lactone]

- PTI responses ([Ca^2+]cyt signalling, ROS production, defence gene induction, MAPK activation; ROS in LORE-GFP-expressing N. benthamiana) (LORE [1]): weak and independent of LORE
SMILES: CCCCCCC/C=C\C(=O)O [Compound 17, (Z)-dec-2-enoic acid]

- PTI responses ([Ca^2+]cyt signalling, ROS production, defence gene induction, MAPK activation; ROS in LORE-GFP-expressing N. benthamiana) (LORE [1]): weak and independent of LORE
SMILES: CCCCCCC/C=C/C(=O)O [Compound 18, (E)-dec-2-enoic acid]

- elicitor activity ([Ca^2+]cyt response) (LORE [2]): abolished elicitor activity
SMILES: CCCCCCCC(Cl)CC(=O)OC (stereo not drawn) [Compound 22, methyl 3-chlorodecanoate]

- elicitor activity ([Ca^2+]cyt response) (LORE [2]): abolished elicitor activity
SMILES: CCCCCCCC(CC(=O)O)OC (stereo not drawn) [Compound 24, 3-methoxydecanoic acid]

- elicitor activity (LORE [1]): inactive
SMILES: CCCCCCCC(O)CC(=O)OC(C)(C)C (stereo not drawn) [Compound 30, tert-butyl-3-hydroxydecanoate]

- PTI in Arabidopsis (LORE [1]; [5]): No
SMILES: CCCCCCCC(O)CC(=O)N[C@H]1CCOC1=O (stereo partly drawn) [Compound 41, N-(3-Hydroxydecanoyl)-L-homoserine lactone]
- early PTI signalling reactions (LORE [1]): did not elicit significant early PTI signalling reactions

- PTI in Arabidopsis (LORE [1]; [5]): No
SMILES: CCCCCCCC(=O)CC(=O)N[C@H]1CCOC1=O [Compound 42, N-(3-Oxodecanoyl)-L-homoserine lactone]
- early PTI signalling reactions (LORE [1]): did not elicit significant early PTI signalling reactions
